Source: ChEMBL document CHEMBL5579832, “Design, synthesis, and biological evaluation of pyrido[2,3-d]pyrimidin-7(8H)-one derivatives as potent USP1 inhibitors” (Eur J Med Chem, 2024)
Active and inactive are the calls of the source. The calls are words filed in the database; no cut-off is given here.

Key:
[1] = Tmax in male ICR mouse at 10 mg/kg, po administered as single dose and measured after 24 hrs; type: ADME, organism-based; conditions: in vivo
[2] = AUC (0 to t) in male ICR mouse at 10 mg/kg, po administered as single dose and measured after 24 hrs; type: ADME, organism-based; conditions: in vivo
MDA-MB-436 = assay: Induction of cell cycle arrest in human MDA-MB-436 cells assessed as increase in cells at S phase at 1 uM incubated for 24 hrs by PI staining based flow cytometry analysis; type: functional
[3] = target: Ubiquitin carboxyl-terminal hydrolase 7 (Homo sapiens) (UniProt Q93009); assay: Inhibition of recombinant human 8His-tagged USP7 using diubiquitin as a substrate at 0 to 10 uM preincubated for 15 mins followed by substrate addition and measured after 2 hrs by SDS-PAGE analysis; conditions: dose 0-10 µM, time 135.0 min
[4] = target: T1, Ubiquitin carboxyl-terminal hydrolase 8 (Homo sapiens) (UniProt P40818); assay: Inhibition of recombinant human 6His-tagged USP8 using diubiquitin as a substrate at 0 to 10 uM preincubated for 15 mins followed by substrate addition and measured after 2 hrs by SDS-PAGE analysis; conditions: dose 0-10 µM, time 135.0 min
T1 sequence (whole entry): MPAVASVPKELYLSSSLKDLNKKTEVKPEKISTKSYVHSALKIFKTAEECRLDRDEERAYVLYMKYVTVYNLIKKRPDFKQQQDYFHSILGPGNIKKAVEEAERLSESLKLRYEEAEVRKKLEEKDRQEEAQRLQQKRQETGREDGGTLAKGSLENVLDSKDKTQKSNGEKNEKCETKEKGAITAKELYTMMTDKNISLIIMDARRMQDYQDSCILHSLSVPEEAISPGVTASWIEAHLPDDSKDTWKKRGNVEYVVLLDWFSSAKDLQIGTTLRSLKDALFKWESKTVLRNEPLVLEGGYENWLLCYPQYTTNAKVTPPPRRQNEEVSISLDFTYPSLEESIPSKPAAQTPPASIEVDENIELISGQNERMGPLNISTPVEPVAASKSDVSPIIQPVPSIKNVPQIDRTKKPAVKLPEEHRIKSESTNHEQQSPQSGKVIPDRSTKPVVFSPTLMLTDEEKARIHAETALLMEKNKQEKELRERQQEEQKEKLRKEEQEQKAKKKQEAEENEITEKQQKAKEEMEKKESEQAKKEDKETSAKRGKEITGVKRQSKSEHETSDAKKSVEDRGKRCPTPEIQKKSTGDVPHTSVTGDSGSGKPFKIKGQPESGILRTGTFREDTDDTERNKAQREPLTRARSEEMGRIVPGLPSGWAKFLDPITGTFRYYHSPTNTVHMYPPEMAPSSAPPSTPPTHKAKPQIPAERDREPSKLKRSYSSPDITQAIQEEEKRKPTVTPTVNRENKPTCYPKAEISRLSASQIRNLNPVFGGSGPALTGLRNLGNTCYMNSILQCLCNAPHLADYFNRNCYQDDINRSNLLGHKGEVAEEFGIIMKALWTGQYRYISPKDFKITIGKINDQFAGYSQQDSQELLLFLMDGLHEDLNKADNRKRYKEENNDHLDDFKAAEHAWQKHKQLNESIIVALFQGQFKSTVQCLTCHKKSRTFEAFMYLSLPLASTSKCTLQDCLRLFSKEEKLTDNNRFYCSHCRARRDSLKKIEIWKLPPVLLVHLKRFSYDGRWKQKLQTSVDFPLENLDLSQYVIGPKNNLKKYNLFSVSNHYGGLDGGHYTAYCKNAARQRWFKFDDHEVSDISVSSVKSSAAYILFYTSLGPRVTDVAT

[5] = target: Ubiquitin carboxyl-terminal hydrolase 9X (Homo sapiens) (UniProt Q93008); assay: Inhibition of USP9X (unknown origin) using diubiquitin as a substrate at 0 to 10 uM preincubated for 15 mins followed by substrate addition and measured after 2 hrs by SDS-PAGE analysis; conditions: dose 0-10 µM, time 135.0 min
[6] = target: T2, Ubiquitin carboxyl-terminal hydrolase 25 (Homo sapiens) (UniProt Q9UHP3); assay: Inhibition of recombinant human 6His-tagged USP25 using diubiquitin as a substrate at 0 to 10 uM preincubated for 15 mins followed by substrate addition and measured after 2 hrs by SDS-PAGE analysis; conditions: dose 0-10 µM, time 135.0 min
T2 sequence (whole entry): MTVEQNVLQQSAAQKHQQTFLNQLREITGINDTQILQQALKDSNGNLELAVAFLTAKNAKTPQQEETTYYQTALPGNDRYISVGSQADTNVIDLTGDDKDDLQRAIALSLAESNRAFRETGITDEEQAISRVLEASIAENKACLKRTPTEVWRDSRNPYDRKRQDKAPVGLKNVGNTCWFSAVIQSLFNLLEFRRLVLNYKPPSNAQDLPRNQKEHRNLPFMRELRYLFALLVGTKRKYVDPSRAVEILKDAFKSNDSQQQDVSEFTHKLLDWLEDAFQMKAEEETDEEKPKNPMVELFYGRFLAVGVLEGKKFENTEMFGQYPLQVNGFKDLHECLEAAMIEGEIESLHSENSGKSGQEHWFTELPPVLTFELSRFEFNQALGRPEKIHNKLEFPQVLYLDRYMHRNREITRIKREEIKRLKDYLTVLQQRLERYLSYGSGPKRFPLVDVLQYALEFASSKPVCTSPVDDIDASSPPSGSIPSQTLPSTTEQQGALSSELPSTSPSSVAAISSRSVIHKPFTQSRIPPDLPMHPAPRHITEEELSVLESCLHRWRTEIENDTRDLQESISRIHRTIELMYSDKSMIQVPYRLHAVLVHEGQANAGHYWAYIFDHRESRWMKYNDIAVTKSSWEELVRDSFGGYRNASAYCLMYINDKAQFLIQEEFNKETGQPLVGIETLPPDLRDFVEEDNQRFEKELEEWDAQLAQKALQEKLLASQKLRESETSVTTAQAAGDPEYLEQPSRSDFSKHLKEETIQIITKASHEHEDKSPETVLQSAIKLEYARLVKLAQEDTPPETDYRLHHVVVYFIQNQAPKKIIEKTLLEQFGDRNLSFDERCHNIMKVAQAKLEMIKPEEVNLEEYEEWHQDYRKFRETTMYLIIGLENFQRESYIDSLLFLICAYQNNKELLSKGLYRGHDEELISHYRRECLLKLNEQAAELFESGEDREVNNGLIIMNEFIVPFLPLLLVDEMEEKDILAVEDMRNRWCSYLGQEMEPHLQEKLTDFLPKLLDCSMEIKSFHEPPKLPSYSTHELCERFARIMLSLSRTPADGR

[7] = test system: Olaparib-resistant MDA-MB-436; assay: Inhibition of colony formation in human Olaparib-resistant MDA-MB-436 cell at 100 nM measured after 7 days by SRB staining based assay relative to control; type: functional; conditions: Olaparib-resistant MDA-MB-436, 168 h, time 7 day
[8] = target: Ubiquitin carboxyl-terminal hydrolase 1/WD repeat-containing protein 48 (Homo sapiens) (UniProt O94782+Q8TAF3); conditions: NCI-H1299, dose 20-500 nM, time 24.0 hrs

Ubiquitin carboxyl-terminal hydrolase 7 (Homo sapiens), sequence (Q93009 whole entry, looked up): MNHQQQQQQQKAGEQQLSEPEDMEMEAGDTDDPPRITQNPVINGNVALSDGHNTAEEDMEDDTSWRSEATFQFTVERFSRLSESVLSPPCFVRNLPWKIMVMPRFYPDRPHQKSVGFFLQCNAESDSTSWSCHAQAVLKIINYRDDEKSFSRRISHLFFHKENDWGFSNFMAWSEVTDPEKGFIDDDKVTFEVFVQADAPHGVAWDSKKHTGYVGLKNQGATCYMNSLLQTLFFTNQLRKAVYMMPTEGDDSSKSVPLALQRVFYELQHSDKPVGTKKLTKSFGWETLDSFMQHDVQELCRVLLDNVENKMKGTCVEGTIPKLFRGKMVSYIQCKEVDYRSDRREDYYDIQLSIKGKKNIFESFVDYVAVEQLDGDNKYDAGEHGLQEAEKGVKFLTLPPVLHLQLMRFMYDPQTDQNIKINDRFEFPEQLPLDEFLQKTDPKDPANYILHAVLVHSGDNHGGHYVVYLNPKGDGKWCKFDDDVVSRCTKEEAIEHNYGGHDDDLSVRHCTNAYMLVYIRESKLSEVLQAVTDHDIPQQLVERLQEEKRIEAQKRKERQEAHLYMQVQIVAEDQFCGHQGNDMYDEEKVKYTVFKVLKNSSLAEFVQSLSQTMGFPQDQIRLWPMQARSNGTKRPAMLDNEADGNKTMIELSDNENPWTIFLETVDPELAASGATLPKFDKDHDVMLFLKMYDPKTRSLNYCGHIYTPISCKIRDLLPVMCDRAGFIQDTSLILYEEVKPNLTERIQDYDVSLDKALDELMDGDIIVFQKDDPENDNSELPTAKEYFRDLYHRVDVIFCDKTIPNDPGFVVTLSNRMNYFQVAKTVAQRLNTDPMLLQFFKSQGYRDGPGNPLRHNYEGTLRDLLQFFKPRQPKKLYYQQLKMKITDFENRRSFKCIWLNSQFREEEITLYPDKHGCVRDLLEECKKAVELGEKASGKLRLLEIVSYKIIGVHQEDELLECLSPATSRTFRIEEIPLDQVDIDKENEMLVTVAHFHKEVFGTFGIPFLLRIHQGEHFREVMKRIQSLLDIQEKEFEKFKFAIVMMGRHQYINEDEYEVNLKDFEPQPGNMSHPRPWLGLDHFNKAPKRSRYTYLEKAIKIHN
Ubiquitin carboxyl-terminal hydrolase 9X (Homo sapiens), sequence (Q93008 whole entry): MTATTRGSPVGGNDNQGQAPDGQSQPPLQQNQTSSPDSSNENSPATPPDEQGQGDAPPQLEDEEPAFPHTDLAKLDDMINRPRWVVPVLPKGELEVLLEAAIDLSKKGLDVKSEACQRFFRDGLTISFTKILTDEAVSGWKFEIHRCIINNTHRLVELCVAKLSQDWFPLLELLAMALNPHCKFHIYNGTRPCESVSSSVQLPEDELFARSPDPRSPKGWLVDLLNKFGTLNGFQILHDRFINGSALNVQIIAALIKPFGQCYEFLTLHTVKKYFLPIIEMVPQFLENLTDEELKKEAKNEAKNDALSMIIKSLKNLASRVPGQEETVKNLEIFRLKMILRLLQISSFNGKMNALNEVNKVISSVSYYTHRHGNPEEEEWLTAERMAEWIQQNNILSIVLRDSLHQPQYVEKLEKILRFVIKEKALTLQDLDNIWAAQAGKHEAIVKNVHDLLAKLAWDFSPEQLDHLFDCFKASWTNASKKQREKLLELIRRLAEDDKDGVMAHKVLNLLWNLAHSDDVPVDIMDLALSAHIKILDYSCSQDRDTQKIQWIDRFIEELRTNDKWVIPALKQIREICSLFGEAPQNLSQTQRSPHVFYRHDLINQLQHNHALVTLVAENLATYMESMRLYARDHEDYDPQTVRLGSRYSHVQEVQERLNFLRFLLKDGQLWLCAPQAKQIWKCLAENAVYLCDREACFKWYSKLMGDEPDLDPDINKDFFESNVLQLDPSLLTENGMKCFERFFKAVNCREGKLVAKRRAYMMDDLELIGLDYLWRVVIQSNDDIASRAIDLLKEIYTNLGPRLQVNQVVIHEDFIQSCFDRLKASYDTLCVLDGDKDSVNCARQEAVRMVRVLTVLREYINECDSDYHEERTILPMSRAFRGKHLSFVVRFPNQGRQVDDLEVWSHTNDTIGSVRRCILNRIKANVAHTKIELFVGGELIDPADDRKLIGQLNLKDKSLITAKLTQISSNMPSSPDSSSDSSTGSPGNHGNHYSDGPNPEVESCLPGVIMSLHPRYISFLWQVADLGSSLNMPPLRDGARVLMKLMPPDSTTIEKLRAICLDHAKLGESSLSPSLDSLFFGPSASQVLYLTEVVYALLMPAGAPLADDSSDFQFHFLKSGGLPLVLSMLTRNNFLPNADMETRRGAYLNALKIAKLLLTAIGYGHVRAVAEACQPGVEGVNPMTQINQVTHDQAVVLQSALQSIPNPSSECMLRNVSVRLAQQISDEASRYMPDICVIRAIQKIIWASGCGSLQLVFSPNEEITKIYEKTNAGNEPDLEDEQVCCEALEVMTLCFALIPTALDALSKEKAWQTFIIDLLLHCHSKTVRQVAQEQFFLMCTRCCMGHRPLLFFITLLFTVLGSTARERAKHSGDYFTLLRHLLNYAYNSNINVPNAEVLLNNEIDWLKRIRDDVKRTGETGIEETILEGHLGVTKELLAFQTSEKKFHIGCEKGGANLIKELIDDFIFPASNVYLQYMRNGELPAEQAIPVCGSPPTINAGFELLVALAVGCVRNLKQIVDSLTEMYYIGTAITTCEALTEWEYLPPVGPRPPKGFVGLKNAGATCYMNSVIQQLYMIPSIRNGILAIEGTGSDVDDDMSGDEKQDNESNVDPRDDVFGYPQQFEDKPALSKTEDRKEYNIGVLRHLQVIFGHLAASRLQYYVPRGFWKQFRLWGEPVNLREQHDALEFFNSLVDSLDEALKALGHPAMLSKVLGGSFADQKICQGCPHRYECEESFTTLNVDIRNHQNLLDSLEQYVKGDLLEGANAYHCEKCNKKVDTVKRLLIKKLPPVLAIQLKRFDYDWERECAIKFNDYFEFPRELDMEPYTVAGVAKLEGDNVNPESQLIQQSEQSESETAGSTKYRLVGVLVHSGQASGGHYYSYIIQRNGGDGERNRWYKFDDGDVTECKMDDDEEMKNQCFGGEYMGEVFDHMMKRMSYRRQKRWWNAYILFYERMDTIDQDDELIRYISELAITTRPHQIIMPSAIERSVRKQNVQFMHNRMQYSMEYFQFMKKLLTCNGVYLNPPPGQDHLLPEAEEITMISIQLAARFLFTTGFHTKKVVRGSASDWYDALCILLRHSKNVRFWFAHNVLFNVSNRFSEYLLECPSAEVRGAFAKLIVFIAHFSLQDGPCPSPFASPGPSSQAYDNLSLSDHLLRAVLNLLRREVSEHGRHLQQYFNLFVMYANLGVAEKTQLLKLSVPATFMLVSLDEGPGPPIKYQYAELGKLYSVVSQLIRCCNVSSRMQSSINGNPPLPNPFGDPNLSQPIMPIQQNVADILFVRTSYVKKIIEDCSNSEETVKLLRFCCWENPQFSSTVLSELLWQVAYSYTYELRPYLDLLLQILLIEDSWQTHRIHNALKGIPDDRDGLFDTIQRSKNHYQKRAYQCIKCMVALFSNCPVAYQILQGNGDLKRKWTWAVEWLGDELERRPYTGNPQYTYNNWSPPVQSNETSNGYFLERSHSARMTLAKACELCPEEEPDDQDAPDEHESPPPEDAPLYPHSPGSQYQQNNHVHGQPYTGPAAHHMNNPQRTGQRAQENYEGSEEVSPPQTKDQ

Tmax [1]: 15 min
AUC(0-t) at 24 h [2]: 35800 ng·h/mL
inhibition [3]: inactive
inhibition [4]: inactive
inhibition [5]: inactive
inhibition [6]: inactive
inhibition [8]: Dose-Dependent Effect
SMILES: COc1ncnc(C2CC2)c1-c1ncc2ccc(=O)n(Cc3ccc(-c4nc(C(F)(F)F)cn4C(C)C)cc3)c2n1
Activity (MDA-MB-436): Active
inhibition at 0.1 µM [7]: 30%
